Test results from patent US11000491B2, “Amino-aryl-benzamide compounds and methods of use thereof” (HEPANOVA, INC., priority 2017, dated 2021).
Where two headings read alike, the source gives them in different places.

Assays:
Assay type in all cases: cell-based
SREBP-2 = SREBP-2 expression in cultured primary human hepatocytes; conditions: procedure of Example 6, read-out: SREBP-2 mRNA inhibition (EC50)
How it was run: (§1)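 Primary human hepatocytes in culture exposed to a range of HPN-01 derivative concentrations; SREBP-1 and SREBP-2 mRNA expression then measured to assess inhibition.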

SREBP-1 = SREBP-1 expression in cultured primary human hepatocytes; conditions: procedure of Example 6, read-out: SREBP-1 mRNA inhibition (EC50)
How it was run: as §1

Huh7 cells = assay: LD content in Huh7 cells pre-treated with insulin, Oil-Red-O staining, absorbance OD 540 nm; conditions: procedure of Example 3, read-out: LD content inhibition (EC50)
How it was run: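 Huh7 cells, mock-treated or pre-treated with 1 mM insulin, were then exposed to compound at the indicated amounts. Lipid droplets stained with Oil Red O and quantified by absorbance at OD 540 nm.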

[1] = Homo sapiens, Huh-7, Huh7 cells

| Molecule | EC50 (Huh7 cells; [1]) | EC50 (SREBP-2; Homo sapiens, Hepatocyte) | EC50 (SREBP-1; Homo sapiens, Hepatocyte) | EC50 (SREBP-2) | EC50 (SREBP-1) | EC50 (Huh7 cells; Huh7 cells) |
| --- | --- | --- | --- | --- | --- | --- |
| Nc1c(-c2ccc(S(N)(=O)=O)cc2)cc(-c2ccc(Br)cc2)cc1N1CCNCC1 [HPN-01622, 6′-amino-4″-bromo-5′-(piperazin-1-yl)-[1,1′:3′,1″-terphenyl]-4-sulfonamide] | 22800 nM | 50800 nM | 37100 nM |  |  |  |
| (E)-2-amino-5-(3-oxo-3-(phenylamino)prop-1-en-1-yl)-4′-sulfamoyl-[1,1′-biphenyl]-3-carboxamide [HPN-01125] |  |  |  | 4270 nM | 2800 nM | 380 nM |
| NC(=O)c1cc(Oc2ccc(Cl)cc2)cc(-c2ccc(S(N)(=O)=O)cc2)c1N [HPN-01313, 2-amino-5-(4-chlorophenoxy)-4′-sulfamoyl-[1,1′-biphenyl]-3-carboxamide] | 1760 nM | 9410 nM | 5510 nM |  |  |  |
| COc1cccc(C(=O)OCC#Cc2cc(C(N)=O)c(N)c(-c3ccc(S(N)(=O)=O)cc3)c2)c1 [HPN-01216, 3-(6-amino-5-carbamoyl-4′-sulfamoyl-[1,1′-biphenyl]-3-yl)prop-2-yn-1-yl 3-methoxybenzoate] | 960 nM | 7930 nM | 4350 nM |  |  |  |
| Cc1ccccc1C(=O)OCC#Cc1cc(C(N)=O)c(N)c(-c2ccc(S(N)(=O)=O)cc2)c1 [HPN-01212, 3-(6-amino-5-carbamoyl-4′-sulfamoyl-[1,1′-biphenyl]-3-yl)prop-2-yn-1-yl 2-methylbenzoate] | 750 nM | 1850 nM | 2270 nM |  |  |  |
| NC(=O)c1cc(-c2ccc(Cl)cc2)cc(Sc2ccc(S(N)(=O)=O)cc2)c1N [HPN-01403] |  |  |  | 3090 nM | 1960 nM | 360 nM |
| NC(=O)c1cc(C#CCOC(=O)c2ccccc2Br)cc(-c2ccc(S(N)(=O)=O)cc2)c1N [HPN-01211, 3-(6-amino-5-carbamoyl-4′-sulfamoyl-[1,1′-biphenyl]-3-yl)prop-2-yn-1-yl 2-bromobenzoate] | 780 nM | 7140 nM | 3790 nM |  |  |  |
| CCCC(=O)OCC#Cc1cc(C(N)=O)c(N)c(-c2ccc(S(N)(=O)=O)cc2)c1 [HPN-01224, 3-(6-amino-5-carbamoyl-4′-sulfamoyl-[1,1′-biphenyl]-3-yl)prop-2-yn-1-yl butyrate] | 580 nM | 2570 nM | 1580 nM |  |  |  |
| NC(=O)c1cc(-c2ccc(Cl)cc2)cc(Oc2cccc(S(=O)(=O)NCCO)c2)c1N [HPN-01422, 4-amino-4′-chloro-5-(3-(N-(2-hydroxyethyl)sulfamoyl)phenoxy)-[1, 1′-biphenyl]-3-carboxamide] | 1440 nM | 3930 nM | 1520 nM |  |  |  |
| methyl (E)-3-(6-amino-4′-(amino-(methylene)sulfinyl)-5-carbamoyl-[1,1′-biphenyl]-3-yl)acrylate [HPN-01114] |  |  |  | 2470 nM | 1270 nM | 210 nM |
| CCOC(=O)/C=C/c1cc(C(N)=O)c(N)c(-c2ccc(S(N)(=O)=O)cc2)c1 [HPN-01115, ethyl (E)-3-(6-amino-5-carbamoyl-4′-sulfamoyl-[1,1′-biphenyl]-3-yl)acrylate] | 2350 nM | 5990 nM | 6420 nM |  |  |  |
| CC(C)OC(=O)c1ccc(-c2cc(C(N)=O)c(N)c(-c3ccc(S(N)(=O)=O)cc3)c2)cc1 [HPN-01303, isopropyl 4′-amino-5′-carbamoyl-4″-sulfamoyl-[1,1′:3′,1″-terphenyl]-4-carboxylate] | 1300 nM | 10500 nM | 6620 nM |  |  |  |
| NC(=O)c1cc(-c2ccc(Br)cc2)cc(Oc2cccc(S(N)(=O)=O)c2)c1N [HPN-01415, 4-amino-4′-bromo-5-(3-sulfamoylphenoxy)-[1, 1′-biphenyl]-3-carboxamide] | 660 nM | 6450 nM | 2350 nM |  |  |  |
| NC(=O)c1cc(-c2cc(Cl)c[nH]2)cc(-c2ccc(S(N)(=O)=O)cc2)c1N [HPN-01309, 2-amino-5-(4-chloro-1H-pyrrol-2-yl)-4′-sulfamoyl-[1,1′-biphenyl]-3-carboxamide] | 3500 nM | 8960 nM | 8160 nM |  |  |  |
| NC(=O)c1cc(C2CCC(Br)CC2)cc(-c2ccc(S(N)(=O)=O)cc2)c1N (stereo not drawn) [HPN-01322, 2-amino-5-(4-bromocyclohexyl)-4′-sulfamoyl-[1,1′-biphenyl]-3-carboxamide] | 830 nM | 2550 nM | 1620 nM |  |  |  |
| NCC(=O)Nc1c(C(N)=O)cc(-c2ccc(Br)cc2)cc1-c1ccc(S(N)(=O)=O)cc1 [HPN-01527, 4′-(2-aminoacetamido)-4-bromo-4″-sulfamoyl-[1,1′:3′,1″-terphenyl]-5′-carboxamide] | 2600 nM | 5690 nM | 5250 nM |  |  |  |

More lines, in order of falling EC50 (Huh7 cells; [1]), values ahead:

| EC50 (Huh7 cells; [1]) | Molecule | EC50 (SREBP-2; Homo sapiens, Hepatocyte) | EC50 (SREBP-1; Homo sapiens, Hepatocyte) | EC50 (SREBP-2) | EC50 (SREBP-1) | EC50 (Huh7 cells; Huh7 cells) |
| --- | --- | --- | --- | --- | --- | --- |
| 2610 nM | NC(=O)c1cc(Nc2cccc(Cl)c2)cc(-c2ccc(S(N)(=O)=O)cc2)c1N [HPN-01315, 2-amino-5-((3-chlorophenyl)amino)-4′-sulfamoyl-[1,1′-biphenyl]-3-carboxamide] | 14000 nM | 7720 nM |  |  |  |
| 2320 nM | CNC(=O)c1cc(-c2ccc(Br)cc2)cc(-c2ccc(S(N)(=O)=O)cc2)c1N [HPN-01602, 4′-amino-4-bromo-N-methyl-4″-sulfamoyl-[1,1′:3′,1″-terphenyl]-5′-carboxamide] | 4730 nM | 3320 nM |  |  |  |
| 2320 nM | Nc1c(C(=O)Nc2cccnc2)cc(-c2ccc(Cl)cc2)cc1-c1ccc(S(N)(=O)=O)cc1 [HPN-01625, 4′-amino-4-chloro-N-(pyridin-3-yl)-4″-sulfamoyl-[1,1′:3′,1″-terphenyl]-5′-carboxamide] | 18800 nM | 3320 nM |  |  |  |
| 1500 nM | CCC(=O)Nc1ccc(-c2cc(-c3ccc(Cl)cc3)cc(C(N)=O)c2N)cc1 [HPN-01408, 4′-amino-4-chloro-4″-propionamido-[1,1′:3′,1″-terphenyl]-5′-carboxamide] | 4370 nM | 2550 nM |  |  |  |
| 1450 nM | NC(=O)c1cc(-c2ccc(Cl)cc2)cc(OCc2ccc(S(N)(=O)=O)cc2)c1N [HPN-01424, 4-amino-4′-chloro-5-((4-sulfamoylbenzyl)oxy)-[1,1′-biphenyl]-3-carboxamide] | 4310 nM | 2690 nM |  |  |  |
| 1330 nM | COc1cccc(NC(=O)c2cc(-c3ccc(Cl)cc3)cc(-c3ccc(S(N)(=O)=O)cc3)c2N)c1 [HPN-01619, 4′-amino-4-chloro-N-(3-methoxyphenyl)-4″-sulfamoyl-[1, 1′:3′,1″-terphenyl]-5′-carboxamide] | 7950 nM | 4180 nM |  |  |  |
| 1180 nM | NC(=O)c1cc(Sc2ccc(Cl)cc2)cc(-c2ccc(S(N)(=O)=O)cc2)c1N [HPN-01314, 2-amino-5-((4-chlorophenyl)thio)-4′-sulfamoyl-[1,1′-biphenyl]-3-carboxamide] | 7710 nM | 4570 nM |  |  |  |
| 1170 nM | NC(=O)c1cc(/C=C/c2ccc(Cl)cc2)cc(-c2ccc(S(N)(=O)=O)cc2)c1N [HPN-01107, (E)-2-amino-5-(4-chlorostyryl)-4′-sulfamoyl-[1,1′-biphenyl]-3-carboxamide] | 7370 nM | 5660 nM |  |  |  |
| 1010 nM | CC(C)OC(=O)/C=C/c1cc(C(N)=O)c(N)c(-c2ccc(S(N)(=O)=O)cc2)c1 [HPN-01116, isopropyl (E)-3-(6-amino-5-carbamoyl-4′-sulfamoyl-[1,1′-biphenyl]-3-yl)acrylate] | 5010 nM | 3740 nM |  |  |  |
| 980 nM | NC(=O)c1cc(C#Cc2ccc(Br)cc2)cc(-c2ccc(S(N)(=O)=O)cc2)c1N [HPN-01207, 2-amino-5-((4-bromophenyl)ethynyl)-4′-sulfamoyl-[1,1′-biphenyl]-3-carboxamide] | 2730 nM | 1940 nM |  |  |  |
| 940 nM | CCCNS(=O)(=O)c1cccc(Oc2cc(-c3ccc(Cl)cc3)cc(C(N)=O)c2N)c1 [HPN-01411, 4-amino-4′-chloro-5-(3-(N-propylsulfamoyl)phenoxy)-[1,1′-biphenyl]-3-carboxamide] | 2840 nM | 1590 nM |  |  |  |
| 830 nM | CC(=O)Oc1ccc(-c2cc(C(N)=O)c(N)c(-c3ccc(S(N)(=O)=O)cc3)c2)cc1 [HPN-01304, 4′-amino-5′-carbamoyl-4″-sulfamoyl-[1,1′:3′,1″-terphenyl]-4-yl acetate] | 2770 nM | 1540 nM |  |  |  |
| 810 nM | CC(=O)Oc1cccc(/C=C/c2cc(C(N)=O)c(N)c(-c3ccc(S(N)(=O)=O)cc3)c2)c1 [HPN-01110, (E)-3-(2-(6-amino-5-carbamoyl-4′-sulfamoyl-[1,1′-biphenyl]-3-yl)vinyl)phenyl acetate] | 3600 nM | 2260 nM |  |  |  |
| 680 nM | NC(=O)c1cc(/C=C/C(=O)OCc2ccccc2)cc(-c2ccc(S(N)(=O)=O)cc2)c1N [HPN-01120, benzyl (E)-3-(6-amino-5-carbamoyl-4′-sulfamoyl-[1,1′-biphenyl]-3-yl)acrylate] | 5100 nM | 6440 nM |  |  |  |
| 290 nM | NC(=O)c1cc(C#Cc2ccccc2)cc(-c2ccc(S(N)(=O)=O)cc2)c1N [HPN-01202, 2-amino-5-(phenylethynyl)-4′-sulfamoylbiphenyl-3-carboxamide] | 900 nM | 640 nM |  |  |  |
| 140 nM | NC(=O)c1cc(-c2ccc(Cl)cc2)cc(-c2ccc(NC(=O)Nc3cccnc3)cc2)c1N [HPN-01429, 4′-amino-4-chloro-4″-(3-(pyridin-3-yl)ureido)-[1,1′:3′,1″-terphenyl]-5′-carboxamide] | 3980 nM | 6690 nM |  |  |  |
